Test results published in US20240269337A1, “METHOD AND SYSTEM FOR COATING FILTER MEDIA” (MOLECULAR PLASMA GROUP SA, priority 2021, published 2024).

Tests used:
MS2 virus = test: Virucidal testing with MS2 droplets on coated filter media 2.2 (Example 3); format: cell-based; settings: 2 hours incubation
Procedure: Filter media 2.2 were coated according to the process parameters of Table 9 using the same PlasmaLine® equipment. For each coating process, 2 samples were coated with the outer waved layer exposed to the plasma source, and 2 samples were coated with the outer backing layer surface exposed.
Two precursors were used: an aqueous solution comprising 40% by weight of citric acid, and a solution of 15% by weight of chlorocresol in ethanol.
The anti-viral properties were tested by application of a fixed number of water droplets containing the MS2 virus on the surface of the samples. The droplets were applied to the surface that was exposed to the plasma source during the atmospheric pressure plasma coating process. After an incubation of 2 hours, the samples were immerged in a recuperation solution to extract the virus from the samples. The recuperation solution was placed in a petri dish wherein the E. coli bacteria grew, and the number of viral zones (zones comprising death bacteria) are counted. A lower number of viral zones indicates a larger neutralisation of the virus by the plasma coating.
The Virucide result (log value) gives the log value of the number of living viruses found in the recuperation solution.

[1] = tested on: Staphylococcus aureus (gram-positive); test: Quantitative antibacterial activity test of treated materials (OECD / ISO 22197/20743), Gram +; format: cell-based, S. aureus ATCC6538P
[2] = tested on: Escherichia coli (gram-negative); test: Quantitative antibacterial activity test of treated materials (OECD / ISO 22197/20743), Gram −; format: cell-based
Phi-6 bacteriophage = test: Phi-6 virucidal test (modified ISO 10705-1:1995); format: cell-based; settings: 20 wt% citric acid precursor, Outer wave sample, 2-hour contact
MS2 = MS2 test after accelerated ageing (ASTM F1980-16), Example 4; format: cell-based
Text: Same filter media 2.2 as in example 3 was used. The filter media was placed with the outer backing layer on a support platform and the outer wave layer exposed to the coating precursor-comprising plasma discharge (or the plasma source) during the atmospheric pressure plasma coating process.
Two different precursors were used: an aqueous solution comprising 50% by weight of citric acid (CAS 77-92-9), and an aqueous solution comprising 25% by weight n-alkyl(C12-16)-n,n-dimethyl-n-benzylammonium chloride (BTC50E; CAS 68424-85-1) (1:1 w/w dilution in water).
Filter media samples were coated with each coating by passing 3 or 6 times through the plasma discharge area. The virucidal performance was tested by the MS2 test as explained above. An accelerated ageing test was performed according to ASTM F1980-16. […] An ageing test of 3 days at 55° C. and 75% RH represents 1 month in real life conditions. The results of the virucidal performance after ageing gives an idea of the durability of the coating over time.

[3] = pH test (change in pH value before and after coating, penetration depth); format: physicochemical; settings: Outer wave sample
Procedure: The penetration depth was measured by measuring the change in pH value before and after coating on samples of the outer wave layer 51. […] Presence of citric acid was also detected in the intermediate layer 52.

[4] = exposed side Backing layer, 5 passes
[5] = exposed side Backing layer, 10 passes
[6] = exposed side waved layer, 5 passes
[7] = exposed side waved layer, 10 passes
[8] = exposed side waved layer, 20 passes
[9] = exposed side Backing layer, 20 passes
[10] = 3 passes, 0 days oven (0 months real life)
[11] = 3 passes, 9 days oven (3 months real life)
[12] = 3 passes, 19 days oven (6 months real life)
[13] = 3 passes, 27 days oven (9 months real life)
[14] = 3 passes, 36 days oven (12 months real life)
[15] = 6 passes, 0 days oven (0 months real life)
[16] = 6 passes, 6 days oven 55° C. 75% RH (2 months real life)
[17] = 6 passes, 9 days oven (3 months real life)
[18] = 6 passes, 19 days oven (6 months real life)
[19] = 6 passes, 27 days oven (9 months real life)
[20] = 6 passes, 36 days oven (12 months real life)
[21] = 3 passes, 3 days oven 55° C. 75% RH (1 month real life)
[22] = 3 passes, 6 days oven 55° C. 75% RH (2 months real life)
[23] = 6 passes, 3 days oven 55° C. 75% RH (1 month real life)

Cc1cc(O)ccc1Cl [Chlorocresol, reference compound]
Virus neutralized (%) (MS2 virus; [4]): 68.4%
Viruside results (log red) (MS2 virus; [4]): 0.5 log red
Virus neutralized (%) (MS2 virus; [5]): 98.0%
Viruside results (log red) (MS2 virus; [5]): 1.7 log red
Virus neutralized (%) (MS2 virus; [6]): 36.9%
Viruside results (log red) (MS2 virus; [6]): 0.2 log red
Virus neutralized (%) (MS2 virus; [7]): 74.9%
Viruside results (log red) (MS2 virus; [7]): 0.6 log red
Virus neutralized (%) (MS2 virus; [8]): 84.2%
Viruside results (log red) (MS2 virus; [8]): 0.8 log red

C=C(C)C(=O)OCCN(C)C [DIMAEMA, 2-(Dimethylamino) ethyl methacrylate]
% Gram + bacteria reduced ([1]; PPNW substrate 25 g/m^2): >99.994%
Gram + log reduction ([1]; PPNW substrate 25 g/m^2): >4.2 log
% Gram + bacteria reduced ([1]; Tyvek substrate): >99.95%
Gram + log reduction ([1]; Tyvek substrate): >3.3 log
% Gram − bacteria reduced ([2]; PPNW substrate 25 g/m^2): >99.9996%
Gram − log reduction ([2]; PPNW substrate 25 g/m^2): >5.4 log
% Gram − bacteria reduced ([2]; Tyvek substrate): 20.6%
Gram − log reduction ([2]; Tyvek substrate): 0.1 log

CCCCCCCCCCCCCCCCCC[N+](C)(C)CCC[Si](OC)(OC)OC.[Cl-] [SiQAM, Dimethyloctadecyl[3-(trimethoxysilyl)propyl] ammonium chloride]
% Gram + bacteria reduced ([1]; PPNW substrate 25 g/m^2): >99.994%
Gram + log reduction ([1]; PPNW substrate 25 g/m^2): >4.2 log
% Gram + bacteria reduced ([1]; Tyvek substrate): >99.95%
Gram + log reduction ([1]; Tyvek substrate): >3.3 log
% Gram − bacteria reduced ([2]; PPNW substrate 25 g/m^2): >99.9996%
Gram − log reduction ([2]; PPNW substrate 25 g/m^2): >5.4 log
% Gram − bacteria reduced ([2]; Tyvek substrate): >98.7%
Gram − log reduction ([2]; Tyvek substrate): >1.9 log

Benzalkonium chloride [reference compound]
% Gram + bacteria reduced ([1]; PPNW substrate 25 g/m^2): >99.994%
Gram + log reduction ([1]; PPNW substrate 25 g/m^2): >4.2 log
% Gram + bacteria reduced ([1]; Tyvek substrate): >99.5%
Gram + log reduction ([1]; Tyvek substrate): >3.3 log
% Gram − bacteria reduced ([2]; PPNW substrate 25 g/m^2): 99.9996%
Gram − log reduction ([2]; PPNW substrate 25 g/m^2): 5.4 log
% Gram − bacteria reduced ([2]; Tyvek substrate): 98.7%
Gram − log reduction ([2]; Tyvek substrate): 1.9 log

Citric Acid
Virus neutralized (%) (MS2 virus; [4]): 93.7%
Viruside results (log red) (MS2 virus; [4]): 1.2 log red
Virus neutralized (%) (MS2 virus; [5]): 96.0%
Viruside results (log red) (MS2 virus; [5]): 1.4 log red
Virus neutralized (%) (MS2 virus; [9]): 99.8%
Viruside results (log red) (MS2 virus; [9]): 2.7 log red
Virus neutralized (%) (MS2 virus; [6]): 80.0%
Viruside results (log red) (MS2 virus; [6]): 0.7 log red
Virus neutralized (%) (MS2 virus; [7]): 93.7%
Viruside results (log red) (MS2 virus; [7]): 1.2 log red
Virus neutralized (%) (MS2 virus; [8]): 98.7%
Viruside results (log red) (MS2 virus; [8]): 1.9 log red
Avg. Phi-6 (log red) (Phi-6 bacteriophage; 6 passes): >2.2 log red
Phi-6 neutralized (%) (Phi-6 bacteriophage; 6 passes): >99.37%
Avg. Phi-6 (log red) (Phi-6 bacteriophage; 10 passes): >2.2 log red
Phi-6 neutralized (%) (Phi-6 bacteriophage; 10 passes): >99.37%
Avg. Phi-6 (log red) (Phi-6 bacteriophage; 20 passes): >2.2 log red
Phi-6 neutralized (%) (Phi-6 bacteriophage; 20 passes): >99.37%
% Gram + bacteria reduced ([1]; PPNW substrate 25 g/m^2): >99.995%
Gram + log reduction ([1]; PPNW substrate 25 g/m^2): >4.3 log
% Gram + bacteria reduced ([1]; Tyvek substrate): >99.98%
Gram + log reduction ([1]; Tyvek substrate): >3.8 log
% Gram − bacteria reduced ([2]; PPNW substrate 25 g/m^2): >99.999%
Gram − log reduction ([2]; PPNW substrate 25 g/m^2): >5.0 log
% Gram − bacteria reduced ([2]; Tyvek substrate): 97.5%
Gram − log reduction ([2]; Tyvek substrate): 1.6 log
Virus neutralized (%) (MS2; [10]): 99.86%
Viruside results (log red) (MS2; [10]): 2.86 log red
Virus neutralized (%) (MS2; [11]): 97.76%
Virus neutralized (%) (MS2; [12]): 97.38%
Virus neutralized (%) (MS2; [13]): 99.00%
Virus neutralized (%) (MS2; [14]): 97.91%
Virus neutralized (%) (MS2; [15]): 99.78%
Viruside results (log red) (MS2; [15]): 2.65 log red
Virus neutralized (%) (MS2; [16]): 98.09%
Viruside results (log red) (MS2; [16]): 1.72 log red
Virus neutralized (%) (MS2; [17]): 96.45%
Virus neutralized (%) (MS2; [18]): 95.91%
Virus neutralized (%) (MS2; [19]): 97.61%
Virus neutralized (%) (MS2; [20]): 93.97%
pH test ([3]; 6 passes): 1.66
pH test ([3]; 10 passes): 1.72
pH test ([3]; 20 passes): 1.78

PVP-12 Poly(vinylpyrrolidone)- Iodine complex [PVP-I2, reference compound]
% Gram + bacteria reduced ([1]; PPNW substrate 25 g/m^2): >99.994%
Gram + log reduction ([1]; PPNW substrate 25 g/m^2): >4.2 log
% Gram − bacteria reduced ([2]; PPNW substrate 25 g/m^2): >99.9996%
Gram − log reduction ([2]; PPNW substrate 25 g/m^2): >5.4 log

n-alkyl(C12-16)-n,n-dimethyl-n-benzylammonium chloride [BTC50E]
Virus neutralized (%) (MS2; [10]): 99.57%
Viruside results (log red) (MS2; [10]): 2.37 log red
Virus neutralized (%) (MS2; [21]): 99.96%
Viruside results (log red) (MS2; [21]): 3.38 log red
Virus neutralized (%) (MS2; [22]): 99.74%
Viruside results (log red) (MS2; [22]): 2.59 log red
Virus neutralized (%) (MS2; [11]): 99.35%
Virus neutralized (%) (MS2; [12]): 99.86%
Virus neutralized (%) (MS2; [13]): 99.89%
Virus neutralized (%) (MS2; [14]): 99.98%
Virus neutralized (%) (MS2; [15]): 99.83%
Viruside results (log red) (MS2; [15]): 2.78 log red
Virus neutralized (%) (MS2; [23]): 99.82%
Viruside results (log red) (MS2; [23]): 2.75 log red
Virus neutralized (%) (MS2; [16]): 99.83%
Viruside results (log red) (MS2; [16]): 2.78 log red
Virus neutralized (%) (MS2; [17]): 98.88%
Virus neutralized (%) (MS2; [18]): 99.83%
Virus neutralized (%) (MS2; [19]): 99.70%
Virus neutralized (%) (MS2; [20]): 98.59%
